Assays:
[1] = system: BMI-1 protein; assay: Inhibition of BMI-1 protein levels in U87 cells (Western blotting); format: cell-based; conditions: U87 cells, 72 hours, different concentrations
Procedure: U87 cells were treated with DMSO or different concentrations of compound B1 for 72 hours. Cells were lysed in Cell Lysis Buffer (Cell Signaling, #9803) supplemented with Protease Inhibitor Cocktail (Sigma, #P8340), sonicated briefly while on ice and spun down for 30 minutes at 4° C., after which the supernatant was collected. For each sample, 2 uL of lysate was mixed well into 198 uL de-ionized water. Next, 10 uL of this diluted sample was added to a well in a 96 well plate in quadruplets and mixed with Protein Assay Dye Reagent Concentrate (Bio-Rad, #500-0006) (which was diluted 1:5 with water). BSA standards of 25 ng, 50 ng, 100 ng, 200 ng and 250 ng were also used to the plate and mixed with the reagent. The plate was read in a plate reader at 600 nm and samples were calibrated to the standards to determine the concentration of protein. Using the NuPAGE system (Invitrogen), 25 ug of protein was mixed with NuPAGE LDS 4× Sample Buffer (#NP0007), NuPAGE 10× Reducing Agent (#NP0004) and water, mixed well and heated at 96° C. for 15 minutes to denature the protein. […] Protein signals were detected using ECL Western Blotting Substrate (Pierce, #32106) and filmed.
U87 cells were treated with DMSO or different concentrations of the inhibitors for 72 hours. […] The plate was read in a plate reader at 600 nm and samples were calibrated to the standards to determine the concentration of protein. […]

[2] = system: BMI-1 and ubiquitinated histone H2A in primary glioblastoma cells; assay: Modulation / dynamics of BMI-1 and downstream targets in GBM cells (Western blotting); format: cell-based, human; conditions: GBM cells, B compounds, 72 hours
Procedure: Different GBM cells were treated with DMSO or different concentrations of the B compounds for 72 hours. Cells were lysed in Cell Lysis Buffer (Cell Signaling, #9803) supplemented with Protease Inhibitor Cocktail (Sigma, #P8340), spun down for 30 minutes at 4° C., after which the supernatant was collected at every time point indicated. Western blotting analysis was performed on all samples as described above. BMI-1 loss started at 6-12 h, coinciding with an upper shift and hyper-phosphorylation of BMI-1 at 12-24 h and complete depletion at 72 h.
To study the compound dynamic activity against GBM spheres, GBMs were tested with exemplary compounds. Different GBM cells were treated with DMSO or different concentrations of the inhibitors for 72 hours. Cells were lysed in Cell Lysis Buffer (Cell Signaling, #9803) supplemented with Protease Inhibitor Cocktail (Sigma, #P8340), spun down for 30 minutes at 4° C., after which the supernatant was collected at every time point indicated. Western blotting analysis was performed on all samples as described above. […] BMI-1 loss started at 6-12 h, coinciding with an upper shift and hyper-phosphorylation of BMI-1 at 12-24 h and complete depletion at 72 h. […] This is expected since BMI-1 is known to suppress p21. BMI-1 inhibition could be reversed using phosphatase treatment, moreover, when proteasomal inhibitor is added to treated cells after 24 h, BMI-1 is locked in the phosphorylated state, therefore showing that the phosphorylation event precedes BMI-1 degradation. The phosphorylation was independent of p38 kinase activation, as when we added […], the p38 inhibitor to the cultured cells upon treatment with the BMI-1 inhibitor, the combined treatment could not reverse the effects of RU-A15 on BMI-1 inhibition.

COc1ccc(Nc2nc(-c3nc4ncccn4c3C)cs2)cc1 [Example B1, N-(4-methoxyphenyl)-4-(3-methylimidazo[1,2-a]pyrimidin-2-yl)thiazol-2-amine]
BMI-1 protein levels in U87 cells (Test C) [1]: inhibition of BMI-1 protein levels
modulation of BMI-1 (Test B) [2]: modulation of BMI-1
modulation of ubiquitinated histone H2A (Test B) [2]: modulation of downstream target ubiquitinated histone H2A
